Results: US6337327B1, “Pharmaceutical compositions comprising an aldose reductase inhibitor and an ace inhibitor” (Zeneca Limited, priority 1997, dated 2002)

System: rats rendered diabetic by streptozotocin (sciatic nerve branch to tibialis anterior muscle)
Experiment: Motor nerve conduction velocity in streptozotocin-diabetic rats
Format: in vivo, Male Sprague-Dawley rats
Conditions: lisinopril 0.3 mg/kg/day; for Nerve conduction velocity (mean±SEM): diabetic rats, 6 weeks untreated diabetes then 2 weeks treatment in the drinking water, ZD5522 0.25 mg/kg/day, or both, nondiabetic control 64.4±0.5, untreated diabetic 50.9±0.5; for increase in conduction velocity: single-agent treatment for 2 weeks vs untreated diabetic rats, ZD5522 0.25 mg/kg/day
Method: Male Sprague-Dawley rats, 19 weeks old at the start of the study, were divided into non-diabetic animals (normal control group) and animals rendered diabetic by intraperitoneal administration of streptozotocin, (40-45 mg/kg, freshly dissolved in sterile saline). Diabetes was verified 24 hours later by estimating hyperglycemia and glucosuria (Visidex II and Diastix; Ames, Slough, UK). Diabetic rats were tested weekly and weighed daily. […] Samples were taken from the tail vein or carotid artery after final experiments for plasma glucose determination (GOD-Perid method; Boehringer Mannheim, Mannheim, Germany). After 6 weeks of untreated diabetes, groups of rats were treated for a further 2 weeks with lisinopril (0.3 mg/kg/day) or the aldose reductase inhibitor, ZD5522 (0.25 mg/kg/day) or a combination of the two drugs, dissolved in the drinking water.
At the end of the treatment period, rats were anesthetized with thiobutabarbitone by intraperitoneal injection (50-100 mg/kg). The trachea was cannulated for artificial ventilation and a cartoid cannula was used to monitor mean systemic blood pressure. Motor nerve conduction velocity was measured (as previously described by Cameron et al, Diabetologia, 1993, Vol. 36, pages 299-304) between sciatic notch and knee in the nerve branch to tibialis anterior muscle, which is representative of the whole sciatic nerve in terms of susceptibility to diabetes and treatment effects.

SMILES	Nerve conduction velocity (mean±SEM) [m/s]	increase in conduction velocity [%]
Cc1ccccc1CC(=O)Nc1cc(C)c(S(=O)(=O)C[N+](=O)[O-])c(C)c1 [ZD5522, 3′,5′-dimethyl-4′-nitromethylsulfonyl-2-(2-tolyl)acetanilide]	53.7±0.3	~20
NCCCC[C@H](N[C@@H](CCc1ccccc1)C(=O)O)C(=O)N1CCC[C@H]1C(=O)O [lisinopril]	53.9±0.6	~20
